Measured values as given in patent US20060264460A1 (Wyeth, priority 2005, published 2006).
pIC50: −log10 of the molar value.

These compounds were tested against T1, human Cot/Tpl2 kinase (Homo sapiens, UniProt P41279) (assay: Tpl2/Cot kinase assay: GST-MEK1 phosphorylation detected by ELISA (DELFIA Eu)). Settings: 0.4 nM Tpl2, 35 nM GST-MEK1, 50 uM ATP, 1 h at 30° C.
T1 construct: human Cot/Tpl2 kinase construct encoding residues 30-398; 6His (N); made in house; host or cells: Sf9 insect cells, baculovirus system (BD Biosciences)
Type: biochemical
Procedure, shortened: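 His-tagged human Tpl2 from Sf9 cells, Ni-affinity and size-exclusion purified (monomer). 0.4 nM Tpl2 with 35 nM GST-MEK1, 50 uM ATP, MOPS pH 7.2, 1% DMSO, 1 h at 30° C; EDTA stop. MEK1 Ser217/221 phosphorylation detected by anti-phospho-MEK1 and Eu-labelled secondary ELISA; IC50 fitted.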

T1 sequence (P41279 30-398): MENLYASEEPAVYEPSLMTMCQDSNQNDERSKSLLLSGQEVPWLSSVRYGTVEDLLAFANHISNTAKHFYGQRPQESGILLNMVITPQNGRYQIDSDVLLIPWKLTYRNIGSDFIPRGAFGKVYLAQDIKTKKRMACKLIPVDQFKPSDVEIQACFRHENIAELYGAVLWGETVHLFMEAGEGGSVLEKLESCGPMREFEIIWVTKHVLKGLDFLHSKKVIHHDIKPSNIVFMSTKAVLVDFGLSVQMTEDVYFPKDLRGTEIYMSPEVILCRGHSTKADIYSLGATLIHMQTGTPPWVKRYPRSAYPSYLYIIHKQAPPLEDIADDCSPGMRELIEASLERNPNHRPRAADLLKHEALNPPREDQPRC

Question: How did the pIC50 turn out when `CCOC(=O)CNc1ccc2ncc(C#N)c(Nc3ccc(F)c(Cl)c3)c2c1` [Example 174, Ethyl 2-(4-(3-chloro-4-fluorophenylamino)-3-cyanoquinolin-6-ylamino)acetate] was run?
Answer: Its pIC50 is 5.46.

Question: `CN(C)CCNS(=O)(=O)c1ccc(CNc2ccc3ncc(C#N)c(Nc4ccc(F)c(Cl)c4)c3c2)cc1` [Example 123, 4-((4-(3-chloro-4-fluorophenylamino)-3-cyanoquinolin-6-ylamino)methyl)-N-(2-(dimethylamino)ethyl)benzenesulfonamide] was tested. Which pIC50 did it give?
Answer: Its pIC50 is 6.27.

Question: How did the pIC50 turn out when `N#Cc1cnc2c(CCC(=O)CO)cc(N)cc2c1Nc1ccc(F)c(Cl)c1` [Example 309, 6-amino-4-[(3-chloro-4-fluorophenyl)amino]-8-(4-hydroxy-3-oxobutyl)quinoline-3-carbonitrile] was run?
Answer: The pIC50 was 5.15.

Question: How did the pIC50 turn out when `CC(C)(C)OC(=O)COc1ccc(C#N)cc1CNc1ccc2ncc(C#N)c(Nc3ccc(F)c(Cl)c3)c2c1` [Example 45, (2-{[4-(3-Chloro-4-fluoro-phenylamino)-3-cyano-quinolin-6-ylamino]-methyl)-4-cyano-phenoxy)-acetic acid tert-butyl ester] was run?
Answer: Its pIC50 is 4.83.

Question: With `N#Cc1cnc2c(CC(O)CO)cc(NCc3cnc[nH]3)cc2c1Nc1ccc(F)c(Cl)c1` (stereo not shown) [Example 314, 4-[(3-chloro-4-fluorophenyl)amino]-8-(2,3-dihydroxypropyl)-6-[(1H-imidazol-5-ylmethyl)amino]quinoline-3-carbonitrile] as the compound, how does the pIC50 read?
Answer: The pIC50 was 6.04.

Question: With `Cc1cc(CNc2cc(C(=O)N(C)C)c3ncc(C#N)c(Nc4ccc(F)c(Cl)c4)c3c2)n(C)n1` [Example 90, 4-(3-chloro-4-fluorophenylamino)-3-cyano-6-((1,3-dimethyl-1-H-pyrazol-5-yl)methylamino)-N, N-dimethylquinoline-8-carboxamide] as the compound, how does the pIC50 read?
Answer: The pIC50 was 5.77.

Question: How did the pIC50 turn out when `CCOCCOc1ccc2c(c1)CN(c1ccc3ncc(C#N)c(Nc4ccc(F)c(Cl)c4)c3c1)C2=N` [Example 60] was run?
Answer: Its pIC50 is less than 4.40.

Question: `N#Cc1cnc2c(O)cc(NCc3cnc[nH]3)cc2c1Nc1ccc(F)c(Cl)c1` [Example 181, 6-((1H-imidazol-5-yl)methylamino)-4-(3-chloro-4-fluorophenylamino) 8-hydroxyquinoline-3-carbonitrile] was tested. Which pIC50 did it give?
Answer: The pIC50 was 4.95.

Question: How did the pIC50 turn out when `Cc1cc(CNc2cc(C(F)(F)F)c3ncc(C#N)c(Nc4ccc(F)c(Cl)c4)c3c2)oc1C` [Example 238, 4-[(3-chloro-4-fluorophenyl)amino]-6-{[(4,5-dimethyl-2-furyl)methyl]amino}-8-(trifluoromethyl)quinoline-3-carbonitrile] was run?
Answer: Its pIC50 is 5.08.

Question: How did the pIC50 turn out when `CN(C)Cc1cc(NCc2cccnc2)cc2c(Nc3cccc(Br)c3)c(C#N)cnc12` [Example 124, 4-(3-bromophenylamino)-8-((dimethylamino)methyl)-6-(pyridin-3-ylmethylamino)quinoline-3-carbonitrile] was run?
Answer: Its pIC50 is less than 5.00.

Question: With `N#Cc1cnc2ccc(NCc3cccnc3)cc2c1Nc1ccc(F)c(Cl)c1` [Example 37, 4-(3-Chloro-4-fluoro-phenylamino)-6-[(pyridin-3-ylmethyl)-amino]-quinoline-3-carbonitrile] as the compound, how does the pIC50 read?
Answer: Its pIC50 is 6.39.

Question: With `Cc1nc2ccc(NCc3cccnc3)cc2c(Nc2ccc(F)c(Cl)c2)c1C#N` [Example 255, 4-[(3-chloro-4-fluorophenyl)amino]-2-methyl-6-[(pyridin-3-ylmethyl)amino]quinoline-3-carbonitrile] as the compound, how does the pIC50 read?
Answer: The pIC50 was less than 4.40.

Question: `CC(Nc1ccc2ncc(C#N)c(Nc3ccc(F)c(Cl)c3)c2c1)c1cnccn1` (stereo not shown) [Example 260, 4-[(3-chloro-4-fluorophenyl)amino]-6-[(1-pyrazin-2-ylethyl)amino]quinoline-3-carbonitrile] was tested. Which pIC50 did it give?
Answer: The pIC50 was 6.08.

Question: How did the pIC50 turn out when `N#Cc1cnc2c(F)cc(NCc3cnc[nH]3)cc2c1Nc1ccc(F)c(Cl)c1` [Example 265, 4-[(3-Chloro-4-fluorophenyl)amino]-8-fluoro-6-[(1H-imidazol-5-ylmethyl)amino]quinoline-3-carbonitrile] was run?
Answer: The pIC50 was 7.68.

Question: `N#Cc1cccc(CNc2cc(C(F)(F)F)c3ncc(C#N)c(Nc4ccc(F)c(Cl)c4)c3c2)c1` [Example 232, 4-[(3-chloro-4-fluorophenyl)amino]-6-[(3-cyanobenzyl)amino]-8-(trifluoromethyl)quinoline-3-carbonitrile] was tested. Which pIC50 did it give?
Answer: The pIC50 was 4.62.

Question: With `N#Cc1cnc2ccc(NCc3nccn3CC(=O)O)cc2c1Nc1ccc(F)c(Cl)c1` [Example 136, 2-(2-((4-(3-chloro-4-fluorophenylamino)-3-cyanoquinolin-6-ylamino)methyl)-1H-imidazol-1-yl)acetic acid] as the compound, how does the pIC50 read?
Answer: Its pIC50 is 7.19.

Same assay, conditions: Table 2; Tpl2/Cot kinase, GST-MEK1 substrate, 50 uM ATP

Question: With `CC(C)(C)OC(=O)N1CCC(CCn2cc(CNc3cc(Br)c4ncc(C#N)c(Nc5ccc(F)c(Cl)c5)c4c3)nn2)CC1` [Example 503] as the compound, how does the pIC50 read?
Answer: The pIC50 was 6.89.

Question: How did the pIC50 turn out when `N#Cc1cnc2c(Cl)cc(NCC(=O)NCc3cccnc3)cc2c1Nc1ccc(F)c(Cl)c1` [Example 598] was run?
Answer: Its pIC50 is 6.70.

Question: How did the pIC50 turn out when `Fc1ccc(Nc2ncncc2-c2ccccc2NCc2cnc[nH]2)cc1Cl` [Example 536] was run?
Answer: Its pIC50 is less than 5.52.

Question: `CN1CCN(CCCn2cc(CNc3cc(Cl)c4ncc(C#N)c(Nc5ccc(F)c(Cl)c5)c4c3)nn2)CC1` [Example 627] was tested. Which pIC50 did it give?
Answer: Its pIC50 is 7.41.

Question: `N#Cc1cnc2c(Br)cc(NCc3cn(CCC4CCNCC4)nn3)cc2c1Nc1ccc(F)c(Cl)c1` [Example 517] was tested. Which pIC50 did it give?
Answer: The pIC50 was 7.05.

Question: With `N#Cc1cnc2ccc(NCCN3CCOCC3)cc2c1Nc1ccc2[nH]ccc2c1` [Example 356] as the compound, how does the pIC50 read?
Answer: The pIC50 was less than 5.00.

Question: How did the pIC50 turn out when `Cn1cc(Cl)c(CNc2ccc3ncc(C#N)c(Nc4ccc(F)c(Cl)c4)c3c2)n1` [Example 389] was run?
Answer: Its pIC50 is less than 4.40.

Question: `CCN1CC(CCn2cc(CNc3cc(Cl)c4ncc(C#N)c(Nc5ccc(F)c(Cl)c5)c4c3)nn2)N(c2ccccc2)C1=O` (stereo not shown) [Example 616] was tested. Which pIC50 did it give?
Answer: Its pIC50 is 7.60.

Question: How did the pIC50 turn out when `CC(C)(C)OC(=O)N1CCC(CCn2cc(CN(Cc3cn(CCC4CCN(C(=O)OC(C)(C)C)CC4)nn3)c3cc(Br)c4ncc(C#N)c(Nc5ccc(F)c(Cl)c5)c4c3)nn2)CC1` [Example 509] was run?
Answer: Its pIC50 is less than 5.52.

Question: With `COCCCNC(=O)CNc1cc(Cl)c2ncc(C#N)c(Nc3ccc(F)c(Cl)c3)c2c1` [Example 606] as the compound, how does the pIC50 read?
Answer: The pIC50 was 6.64.

Question: How did the pIC50 turn out when `CCN1CCC(Nc2ccc3ncc(C#N)c(Nc4ccc(F)c(Cl)c4)c3c2)C(C)C1` (stereo not shown) [Example 377] was run?
Answer: Its pIC50 is less than 4.40.

Question: With `Cn1ccnc1CNc1ccc2ncc(C#N)c(NC(C)(C)C)c2c1` [Example 407] as the compound, how does the pIC50 read?
Answer: The pIC50 was 5.29.

Question: With `CC(C)(C)OC(=O)N1CCCC(Cn2cc(CNc3cc(Br)c4ncc(C#N)c(Nc5ccc(F)c(Cl)c5)c4c3)nn2)C1` (stereo not shown) [Example 540] as the compound, how does the pIC50 read?
Answer: Its pIC50 is 6.92.

Question: With `CN(C)C(=O)Cn1cc(CNc2cc(Cl)c3ncc(C#N)c(Nc4ccc(F)c(Cl)c4)c3c2)nn1` [Example 613] as the compound, how does the pIC50 read?
Answer: Its pIC50 is 9.27.

Question: How did the pIC50 turn out when `N#Cc1cnc2c(Br)cc(NCc3cn(C45CC6CC(CC(C6)C4)C5)nn3)cc2c1Nc1ccc(F)c(Cl)c1` [Example 479] was run?
Answer: Its pIC50 is 5.77.

Question: How did the pIC50 turn out when `CN(C)C(=O)OCCCn1cc(CNc2cc(Br)c3ncc(C#N)c(Nc4ccc(F)c(Cl)c4)c3c2)nn1` [Example 584] was run?
Answer: Its pIC50 is 8.46.

Question: With `CCc1nc(C)c(CNc2ccc3ncc(C#N)c(Nc4ccc(F)c(Cl)c4)c3c2)[nH]1` [Example 369] as the compound, how does the pIC50 read?
Answer: Its pIC50 is 6.19.

Question: With `CN(C)C(=O)CCn1cc(CNc2cc(Cl)c3ncc(C#N)c(Nc4ccc(F)c(Cl)c4)c3c2)nn1` [Example 614] as the compound, how does the pIC50 read?
Answer: Its pIC50 is 8.00.

Question: How did the pIC50 turn out when `CN1CCC(Cn2cc(CNc3cc(Br)c4ncc(C#N)c(Nc5ccc(F)c(Cl)c5)c4c3)nn2)CC1` [Example 499] was run?
Answer: The pIC50 was 7.92.

Same assay, conditions: Tpl2/Cot kinase, GST-MEK1 substrate, 50 uM ATP

Question: With `CNCCn1cc(CNc2cc(Cl)c3ncc(C#N)c(Nc4ccc(F)c(Cl)c4)c3c2)nn1` [Example 685] as the compound, how does the pIC50 read?
Answer: Its pIC50 is 7.54.

Question: With `N#Cc1cnc2c(Cl)cc(NCC(=O)NCCCN3CCOCC3)cc2c1Nc1ccc(F)c(Cl)c1` [Example 776] as the compound, how does the pIC50 read?
Answer: The pIC50 was less than 5.52.

Question: How did the pIC50 turn out when `CCN1CCC(Cn2cc(CNc3cc(Cl)c4ncc(C#N)c(Nc5ccc(F)c(Cl)c5)c4c3)nn2)CC1` [Example 826] was run?
Answer: The pIC50 was 7.46.

Question: How did the pIC50 turn out when `CN1CCC(Cn2cc(CNc3cc(Cl)c4ncc(C#N)c(Nc5ccc(F)c(Cl)c5)c4c3)nn2)CC1` [Example 825] was run?
Answer: Its pIC50 is 7.43.

Question: How did the pIC50 turn out when `CC(C)(C)OC(=O)N1CCN(CCCn2cc(CNc3cc(Cl)c4ncc(C#N)c(Nc5ccc(F)c(Cl)c5)c4c3)nn2)CC1` [Example 765] was run?
Answer: The pIC50 was 6.64.

Question: `CN(CCn1cc(CN(Cc2cn(CCN(C)C(=O)OC(C)(C)C)nn2)c2cc(Br)c3ncc(C#N)c(Nc4ccc(F)c(Cl)c4)c3c2)nn1)C(=O)OC(C)(C)C` [Example 677] was tested. Which pIC50 did it give?
Answer: Its pIC50 is 5.33.

Question: With `N#Cc1cnc2c(Cl)cc(NCCNC(=O)c3cccnc3)cc2c1Nc1ccc(F)c(Cl)c1` [Example 860] as the compound, how does the pIC50 read?
Answer: Its pIC50 is less than 5.52.

Question: With `CC(C)S(=O)(=O)NCCCn1cc(CNc2cc(Cl)c3ncc(C#N)c(Nc4ccc(F)c(Cl)c4)c3c2)nn1` [Example 907] as the compound, how does the pIC50 read?
Answer: The pIC50 was 8.35.

Question: `N#Cc1cnc2c(Cl)cc(NCc3cn(C4CCOCC4)nn3)cc2c1Nc1ccc(F)c(Cl)c1` [Example 734] was tested. Which pIC50 did it give?
Answer: Its pIC50 is 7.85.

Question: `N#Cc1cnc2c(Cl)cc(NC3CCCC3n3cc(CCO)nn3)cc2c1Nc1ccc(F)c(Cl)c1` (stereo not shown) [Example 803] was tested. Which pIC50 did it give?
Answer: Its pIC50 is 7.17.

Question: With `CCOC(=O)C1CC1CNc1cc(Cl)c2ncc(C#N)c(Nc3ccc(F)c(Cl)c3)c2c1` (stereo not shown) [Example 884] as the compound, how does the pIC50 read?
Answer: Its pIC50 is 6.18.

Question: How did the pIC50 turn out when `CCNC(=O)N1CCC[C@H]1Cn1cc(CNc2cc(Cl)c3ncc(C#N)c(Nc4ccc(F)c(Cl)c4)c3c2)nn1` [Example 902] was run?
Answer: Its pIC50 is 9.30.

Question: How did the pIC50 turn out when `CCN1CCC[C@@H]1Cn1cc(CNc2cc(Cl)c3ncc(C#N)c(Nc4ccc(F)c(Cl)c4)c3c2)nn1` [Example 892] was run?
Answer: The pIC50 was 7.52.

Same assay, conditions: Tpl2/Cot kinase, GST-MEK1 substrate, 50 uM ATP, 1 h at 30° C.; Table 2

Question: How did the pIC50 turn out when `N#Cc1cnc2c(Cl)cc(NC[C@H]3C[C@H](OCc4ccccc4)CO3)cc2c1Nc1ccc(F)c(Cl)c1` [Example 935] was run?
Answer: Its pIC50 is less than 5.52.

Question: `CCN1CCC(c2cc(CNc3cc(Br)c4ncc(C#N)c(Nc5ccc(F)c(Cl)c5)c4c3)[nH]n2)CC1` [Example 1045] was tested. Which pIC50 did it give?
Answer: The pIC50 was 6.21.

Question: With `CC(C)(C)OC(=O)N1CCC(n2cc(CNc3cc(Cl)c4ncc(C#N)c(NC5CCCC5)c4c3)nn2)CC1` [Example 943] as the compound, how does the pIC50 read?
Answer: Its pIC50 is less than 5.52.

Question: How did the pIC50 turn out when `N#Cc1cnc2c(Cl)cc(NCc3cn(C4CCN(CC(F)(F)C(F)F)CC4)nn3)cc2c1Nc1ccc(F)c(Cl)c1` [Example 1018] was run?
Answer: The pIC50 was 6.40.
